Where two headings read alike, the source gives them in different places.
Tests used:
[1] = system: genomic DNA of IMR-32 cells; details: for adduct levels compared to Adriamycin alone / relative effectiveness in activating adduct formation: 4 μM [14C] Adriamycin simultaneously with 100 μM aldehyde-releasing compound
Experimental: IMR-32 cells were seeded into 3.5 cm petri dishes at a density of 7.5×10^5 cells/dish 24 hr prior to exposure to 41M [^14C]-Adriamycin for 4 hr. In other treatments 100 μM AN-9 was added at varying times: 2 hr prior to Adriamycin addition (−2); simultaneously (O); and 2 hr after Adriamycin (2). Cells were harvested, and the genomic DNA was isolated. Samples were then extracted twice with phenol and once with chloroform, and DNA was selectively precipitated from RNA by ammonium acetate precipitation. DNA pellets were resuspended in 100 μL TE buffer, and the concentration determined spectrophotometically at 260 nm. Aliquots of the genomic DNA (50 μL) were each added to 1 mL of Optiphase Hisafe scintillation cocktail, and the incorporation of [^14C]-labelled drug into the DNA was monitored using a Wallac 1410 Liquid Scintillation Counter.
IMR-32 cells were exposed to 6 μM [^14C]-Adriamycin alone (Adr) for 4 hr, or together with 125 μl AN-9 at varying times: 16 hr prior (−16), 2 hr prior (−2), simultaneously (0), and 2 hr after Adriamycin addition (2). […] Genomic DNA was extracted from the cells, and incorporation of radiolabelled drug was determined by scintillation counting to determine the level of [^14C] adducts per 10 kb.
Therefore, IMR-32 cells were treated with 4 μM [^14C] Adriamycin and were simultaneously treated with 100 μM of selected aldehyde-releasing compound. Cells were harvested, genomic DNA was extracted and scintillation analyses were performed as described above.
To test whether a greater fraction of Adriamycin can be utilized for adduct formation when the amount of available formaldehyde is increased, the concentration dependence of AN-9 was investigated. IMR-32 cells were treated with [^14C] Adriamycin at a constant concentration of 4 μM. AN-9 was added 2 hr after Adriamycin at concentrations ranging from 4 μM (1:1) to 500 μM (1:125), and the treatment continued for a further 2 hr. Cells were harvested, DNA was extracted and samples were analysed for incorporation of [^14C].
Adducts (lesions/10 kb) were determined by incubating IMR-32 cells in the presence of 2 μM [^14C]Adriamycin for 2 hr. followed by an additional 2 hr in the presence or absence of 100 μM AN-9. Semi-carbazide addition was at the same time as Adriamycin (ie 2 hr before AN-9). However, values in parentheses indicate that semi-carbazide addition was at the same time as AN-9 treatment (ie 2 hr after Adriamycin).
Adriamycin for 4 hr. These were simultaneously incubated with the indicated aldehyde-releasing compound at a final concentration of 100 μM. Samples were harvested as indicated previously and DNA was assessed for incorporation of radioactively labelled Adriamycin.

[2] = system: mitochondrial genome and DHFR gene of IMR-32 cells; test: Gene-specific Southern hybridisation assay of DNA adducts / virtual crosslinks; format: cell-based, human; details: for level of DNA adducts (percentage of double stranded DNA): IMR-32, Adriamycin alone, or Adriamycin with 25-fold excess of AN-9 (added 2 hr after or 2 hr before)
Experimental: We sought to investigate the level of DNA adducts formed under various treatment conditions, since we speculated that the peculiar effectiveness of the Adriamycin/AN-9 combination might be due to increased levels of DNA damage in the form of DNA adducts. IMR-32 human neuroblastoma cells (A and B) and MCF-7 human breast adenocarcinoma cells (C and D) were treated with Adriamycin for 2 hr ([…] as shown) followed by a further 2 hr incubation with a 25-fold excess of AN-9 (▪), or treated with AN-9 for 2 hr followed by a further 4 hr incubation with Adriamycin (□). Genomic DNA was isolated using mild conditions (Cutts et al., 2001) and subjected to gene-specific Southern hybridisation analysis. For detection of the mitochondrial genome, DNA was restriction digested with BamHI, and unreacted or intercalated drug was removed by phenol/chloroform extraction and ethanol precipitation. Samples were resuspended in 60% formamide and heat denatured at 60° C. for 5 min. Samples were resolved electrophoretically through 0.8% agarose, transferred to nylon membranes and probed with mitochondrial RNA. The percentage of double stranded DNA was calculated by phosphorimage analysis; this correlates with adduct formation in the mitochondrial genome (A and C), since the adducts behave functionally as virtual interstrand crosslinks (Zeman et al., 1998; Cullinane et al., 2000). For detection of the DHFR gene, DNA was digested with HindIII and processed as described above; however, randomly primed DHFR DNA was used as the probe for Southern analysis (B and D). Data were derived from each of two separate blots of two biological experiments, and the values are represented as the mean±SE. […] This provides a biochemical basis for the synergistic/antagonistic cytotoxicity relationship.
It was known that the formation of Adriamycin adducts was highly time-dependent. To confirm that the adducts behave as classical Adriamycin adducts, and also to investigate the optimal conditions for adduct formation, a time course study was initiated. IMR-32 cells were treated with a combination of 4 μM Adriamycin and 100 μM AN-9 for 0-8 hr as described above. Phosphorimage analysis was used to quantitate the time-dependent formation of adducts in the mitochondrial genome (A) and DHFR gene (B).
In order to gain some understanding as to why synergy was greatest when AN-9 was added at the same time as, or after, Adriamycin, a time course of addition of AN-9 was studied. IMR-32 cells were exposed to 4 μM Adriamycin for 4 hr. […] Adduct/crosslinking levels are shown in FIG. 3 for both mitochondrial (A) and nuclear (B) DNA, using probes for mtDNA and the DHFR gene respectively. Phosphorimage analysis was used to quantitate the fraction of DS DNA, a measure of adduct formation, for each treatment condition. Adduct formation fluctuated greatly, and depended on a relatively small time frame within which AN-9 was added to cells. […] This enabled us to predict that if AN-9 was added shortly after Adriamycin in cytotoxicity assays, within say approximately 2 hr, then the Combination Index obtained would be even better than when the drugs were added simultaneously.
IMR-32 cells were exposed to Adriamycin (6 μm) for 4 hr, and AN-9 (125 μM) was added at varying times from 24 hr prior to Adriamycin addition (−24) to 2 hr after Adriamycin. Genomic DNA was extracted from cells and then processed for Southern analysis. Phosphorimage analysis was used for quantitation of the adducts in mtDNA (A) and the DHFR gene (B), and the results are shown in FIG. 4.

[3] = system: mitochondrial genome and DHFR gene of MCF-7 cells; test: as above; format: cell-based, human; details: Adriamycin alone, or Adriamycin with 25-fold excess of AN-9 (added 2 hr after or 2 hr before)
Experimental: We sought to investigate the level of DNA adducts formed under various treatment conditions, since we speculated that the peculiar effectiveness of the Adriamycin/AN-9 combination might be due to increased levels of DNA damage in the form of DNA adducts. IMR-32 human neuroblastoma cells (A and B) and MCF-7 human breast adenocarcinoma cells (C and D) were treated with Adriamycin for 2 hr ([…] as shown) followed by a further 2 hr incubation with a 25-fold excess of AN-9 (▪), or treated with AN-9 for 2 hr followed by a further 4 hr incubation with Adriamycin (□). Genomic DNA was isolated using mild conditions (Cutts et al., 2001) and subjected to gene-specific Southern hybridisation analysis. For detection of the mitochondrial genome, DNA was restriction digested with BamHI, and unreacted or intercalated drug was removed by phenol/chloroform extraction and ethanol precipitation. Samples were resuspended in 60% formamide and heat denatured at 60° C. for 5 min. Samples were resolved electrophoretically through 0.8% agarose, transferred to nylon membranes and probed with mitochondrial RNA. The percentage of double stranded DNA was calculated by phosphorimage analysis; this correlates with adduct formation in the mitochondrial genome (A and C), since the adducts behave functionally as virtual interstrand crosslinks (Zeman et al., 1998; Cullinane et al., 2000). […]

[4] = system: HL-60 cells; details: cited from earlier work
[5] = system: IMR-32 cells; test: Cell viability assay, relative survival with semi-carbazide; format: cell-based, human; details: IC50 relative to Adriamycin alone; 72 hr; presence or absence of 50 μM AN-9; no semi-carbazide
Experimental: To obtain data representing relative survival, cells were seeded at a density of 1×10^4 per well and exposed to increasing concentrations of Adriamycin in the presence or absence of 50 μM AN-9 and/or semi-carbazide (0.25, 0.5 or 1.0 mM as indicated) for 72 hr. IC50 values for various combinations are shown as relative survival compared to Adriamycin alone. […] Overall, the critical role of formaldehyde was confirmed by reversal of formaldehyde-mediated effects by semi-carbazide, which reduced adduct formation and also abolished the cytotoxicity resulting from the interaction of AN-9 with Adriamycin.

[6] = system: DNA; details: cited from earlier work
[7] = 4 μM [14C] Adriamycin, 500 μM AN-9 (1:125) added 2 hr after
[8] = 6 μM [14C]-Adriamycin 4 hr, AN-9 16 hr prior to Adriamycin

For `CCCC(=O)OC(C)OP(=O)(OCC)OCC` (stereo not drawn) [AN-88, 1-Butyroyloxyethyldiethyl Phosphate], the “adduct levels compared to Adriamycin alone” value [1] was “reinforced the concept that it was the released formaldehyde which was solely responsible for increased adduct formation”.
For `C1N2CN3CN1CN(C2)C3` [hexamethylenetetramine, reference compound], the “facilitation of Adriamycin adduct formation” value ([2]; 15 μM Adriamycin, 4 hr later 0-2.5 mM hexamethylenetetramine, harvested after 8 hr) was “not as effective as AN-9”.
In the case of `CCCC(=O)OCOP(=O)(OCC)OCC` [AN-7, Butyroyloxymethyldiethyl Phosphate], the “adduct levels compared to Adriamycin alone” value [1] is reported as “enhanced adduct levels” and the “relative effectiveness in activating adduct formation” value [1] is reported as “good activity”.
With `CCCC(=O)OCOC(=O)C(C)(C)C` [AN-9, Pivaloyloxymethyl Butyrate] the adduct/crosslinking levels ([2]; 4 μM Adriamycin 4 hr, 100 μM AN-9 added shortly after Adriamycin, compared with simultaneous addition) was “greatly enhanced levels of adducts”, the “enhancement of adduct levels” value ([2]; Adriamycin (6 μm) 4 hr, AN-9 (125 μM) administered 5-24 hr prior to Adriamycin) was “no enhancement of adduct levels” and the “level of DNA adducts (percentage of double stranded DNA)” value [2] was “dramatic increases in the level of DNA adducts”. For the same compound, the “effect on the ability of barminomycin to induce DNA crosslinks” value ([2]; barminomycin 0-20 nM, 12,500-fold excess of AN-9, added after or 2 hr before barminomycin) was “no effect”, the “level of DNA adducts (percentage of double stranded DNA)” value [3] was “dramatic increases in the level of DNA adducts” and the “adduct levels compared to Adriamycin alone” value [1] was “enhanced adduct levels”. For the same compound, the “relative effectiveness in activating adduct formation” value [1] was “most effective”, the “total Adriamycin added to cells incorporated into DNA adducts” value ([1]; 4 μM [14C] Adriamycin, 500 μM AN-9) was “approximately 5%” and the “adduct levels relative to the 1:20-1:25 ratio” value [1, 7] was “approximately 10 fold”. For the same compound, the “potentiation of Adriamycin adduct levels” value [1, 7] was “approximately 100 fold”, the Adriamycin adducts ([1]; 4 μM [14C] Adriamycin, AN-9 added 2 hr after, further 2 hr, Adriamycin:AN-9 1:20-1:25) was 10 adducts per 10 kb and the “enhancement of adduct formation” value ([1]; 4 μM [14C] Adriamycin, AN-9 added 2 hr after, Adriamycin:AN9 1:1-1:5) was “poor”. For the same compound, the “levels of Adriamycin adducts” value [1, 8] was 1.7 /10 kb, the “loss of adducts compared to Adriamycin alone” value [1, 8] was 40% and the “enhancement of adducts compared to Adriamycin alone” value ([1]; 6 μM [14C]-Adriamycin 4 hr, AN-9 added 2 hr after Adriamycin) was “approximately 20 fold”. The “level of Adriamycin adducts” value ([1]; 41M [14C]-Adriamycin 4 hr, 100 μM AN-9 2 hr after Adriamycin) was ~24 per 10 kb, the “level of Adriamycin adducts” value ([1]; 41M [14C]-Adriamycin 4 hr, 100 μM AN-9 2 hr prior to Adriamycin) was ~3.5 per 10 kb and the “potentiation of the level of Adriamycin adducts” value ([1]; 41M [14C]-Adriamycin 4 hr, 100 μM AN-9, vs Adriamycin alone) was “up to 15 fold”. The “level of Adriamycin adducts” value ([1]; 41M [14C]-Adriamycin 4 hr, 100 μM AN-9 simultaneously) was “approximately 12 per 10 kb”, the histone acetylation [4] was “induce histone acetylation” and the “time after exposure at which basal level of acetylation is re-established” value [4] was 6 h.
For `CCCC(=O)O` [Butyric acid, reference compound], the “increase in Adriamycin adduct levels” value ([1]; 6 μM [14C]-Adriamycin 4 hr, sodium butyrate (1 mM) 16 hr prior, 2 hr prior, simultaneously or 2 hr after) was “no significant increases in adduct levels”.
In the case of `COc1cccc2c1C(=O)c1c(O)c3c(c(O)c1C2=O)C[C@@](O)(C(=O)CO)C[C@@H]3O[C@H]1C[C@H](N)[C@H](O)[C@H](C)O1` [Adriamycin, reference compound], the “level of DNA adducts (percentage of double stranded DNA)” value [2] is reported as “no adducts were detected”, the “level of DNA adducts (percentage of double stranded DNA)” value [3] is reported as “no adducts were detected” and the Relative survival [5] is reported as 1.00 ± 0.12. For the same compound, the “levels of Adriamycin adducts” value ([1]; 6 μM [14C]-Adriamycin alone 4 hr) was 2.8 /10 kb, the “level of Adriamycin adducts” value ([1]; 41M [14C]-Adriamycin 4 hr, absence of AN-9) was “approximately 1.5 per 10 kb” and the “half-life of Adriamycin adducts” value [6] was 5 to 40 h.
With `CCC(=O)OC(C)OC(=O)CC` [AN-188, Ethylidene Dipropionate] the “adduct levels compared to Adriamycin alone” value [1] was “reinforced the concept that it was the released formaldehyde which was solely responsible for increased adduct formation”.

— patent publication US20040110727A1, “Aldehyde-releasing compounds” (priority 2000, published 2004)
